Measured values reported in article PMC8151276, “An Integrated Approach toward NanoBRET Tracers for Analysis of GPCR Ligand Engagement” (Molecules, 2021).
Values joined by “and” are separate entries in the source; they are usually repeats but may differ in a detail not shown here. Equal entries are not always repeated. Where two headings read alike, the source gives them in different places.

What was measured:
Type in all cases: binding
[1] = molecular target: T1, HTR2A (Homo sapiens, UniProt P28223); assay: NanoBRET screen HiBiT-HTR2A in HEK293
T1 construct: purchased Promega (in-house HiBiT-GPCR construct library, NanoBRET)
T1 sequence (P28223 whole entry): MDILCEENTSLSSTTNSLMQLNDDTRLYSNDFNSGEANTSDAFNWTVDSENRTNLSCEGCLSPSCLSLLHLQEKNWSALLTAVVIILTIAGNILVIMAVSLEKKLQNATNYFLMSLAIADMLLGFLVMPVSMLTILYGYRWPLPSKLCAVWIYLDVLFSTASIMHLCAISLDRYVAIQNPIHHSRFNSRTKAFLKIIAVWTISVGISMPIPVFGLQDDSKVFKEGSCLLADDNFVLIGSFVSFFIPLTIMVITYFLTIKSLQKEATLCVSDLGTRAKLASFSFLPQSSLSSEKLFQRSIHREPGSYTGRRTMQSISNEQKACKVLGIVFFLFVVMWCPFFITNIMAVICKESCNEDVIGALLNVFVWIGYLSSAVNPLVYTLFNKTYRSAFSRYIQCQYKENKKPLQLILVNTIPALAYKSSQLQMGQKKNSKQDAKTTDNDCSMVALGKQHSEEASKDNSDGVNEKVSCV

[2] = molecular target: T2, GRM8 (Homo sapiens, UniProt O00222); assay: NanoBRET screen HiBiT-GRM8 in HEK293; conditions: GRM8
T2 construct: purchased Promega (in-house HiBiT-GPCR construct library, NanoBRET)
T2 sequence (O00222 34-908): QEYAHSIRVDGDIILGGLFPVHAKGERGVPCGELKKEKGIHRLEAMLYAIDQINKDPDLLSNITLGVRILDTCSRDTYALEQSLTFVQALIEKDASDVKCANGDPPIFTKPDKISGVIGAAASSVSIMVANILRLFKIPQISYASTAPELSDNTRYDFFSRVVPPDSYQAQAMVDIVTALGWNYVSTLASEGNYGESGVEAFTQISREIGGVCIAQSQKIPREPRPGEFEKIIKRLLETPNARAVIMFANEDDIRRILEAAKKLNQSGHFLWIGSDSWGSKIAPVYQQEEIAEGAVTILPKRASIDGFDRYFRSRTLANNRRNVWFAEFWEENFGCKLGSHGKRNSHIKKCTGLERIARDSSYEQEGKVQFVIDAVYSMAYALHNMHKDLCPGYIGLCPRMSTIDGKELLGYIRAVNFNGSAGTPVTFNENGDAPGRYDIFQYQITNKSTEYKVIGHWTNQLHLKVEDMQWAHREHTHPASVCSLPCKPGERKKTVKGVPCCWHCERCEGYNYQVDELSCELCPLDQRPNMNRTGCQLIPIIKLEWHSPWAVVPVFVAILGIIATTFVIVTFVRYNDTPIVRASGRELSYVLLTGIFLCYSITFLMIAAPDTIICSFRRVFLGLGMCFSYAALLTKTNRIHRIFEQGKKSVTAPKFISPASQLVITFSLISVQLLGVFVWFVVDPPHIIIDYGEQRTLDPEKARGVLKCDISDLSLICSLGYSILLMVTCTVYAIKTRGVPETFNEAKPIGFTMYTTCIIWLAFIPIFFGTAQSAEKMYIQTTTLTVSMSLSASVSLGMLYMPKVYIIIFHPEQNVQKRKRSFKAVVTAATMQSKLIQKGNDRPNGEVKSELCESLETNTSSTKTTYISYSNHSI
Experimental: (§1) Each tracer candidate was screened across the entire library of HiBiT-GPCR constructs using NanoBRET as the detection modality. As depicted in Figure 4A, the specificity of interactions was evaluated through decrease in BRET due to competitive displacement of a bound tracer by excess parental compound. Each tracer was analyzed for binding to each HiBiT-GPCR fusion in the absence and in the presence of competing parental compound. Briefly, HEK293 cells were transfected with HiBiT-GPCR constructs diluted into promoterless DNA to reduce expression and maximize translocation to the cell surface. Each tracer candidate was then screened at concentrations of 1 μM and 0.1 μM across cells expressing these fusions. Cells were treated for 1.5 h with tracer either alone or in the presence of 20 μM competing parental compound (i.e., control). BRET was measured upon addition of purified LgBiT and subsequent complementation with HiBiT genetically fused to a GPCR. The specificity of interactions was assessed through a decrease in BRET signal due to competitive displacement of the bound tracer. To further gauge the robustness of these interactions, the fold response over the control (i.e., BRETtracer/BRETcontrol) was calculated. We chose a 1.5-fold response, which translates to ≥7-fold signal over noise as the minimal threshold required to score an interaction as positive. […]. Below we highlight the screening results obtained for our exemplary fluorescent tracers based on Clozapine, Amitriptyline and AZD1283.
(§2) HiBiT-GPCR DNA constructs were diluted in 10 mM Tris pH 8 to a final concentration of 0.01 μg/μL, arrayed in 96-well plates and stored at −20 °C. For transfection, HEK293 cells were suspended in Opti-MEM (without phenol red) supplemented with 2% fetal bovine serum (Seradigm) and 100 units/mL penicillin–streptomycin (Gibco) at a final concentration of 220,000 cells/mL and dispensed into white 96-well plates at 90 μL/well. Subsequent transfections and screens were carried using an Agilent Bravo Automated Liquid Handling Platform. First, the 96-well HiBiT DNA arrays were diluted 25-fold in Opti-MEM (without serum or phenol red) to a final concentration of 0.0004 μg/μL and 20 μL of the diluted DNAs were transferred into new 96-well plates. Next, promoterless carrier DNA (1 μg/μL) was diluted 25-fold (0.04 μg/μL) and then dispensed into the diluted arrays at 20 μL/well. Following brief mixing, Viafect transfection reagent (Promega) diluted 16-fold into Opti-MEM was dispensed into the plates at 40 μL/well. After mixing by pipetting, plates were incubated for 10 min on the pipetting station deck. The DNA-transfection reagent complexes were then added to plates containing cells. To facilitate the screen, 10 μL of DNA-transfection reagent complexes were added in duplicates to the top 4 and bottom 4 rows, resulting in two identical 48-well arrays per plate. Plates with transfected cells were incubated for 18–20 h at 37 °C/5% CO2. A screen of each tracer across the entire library using two different concentrations requires duplicate plates of transfected cells. Depending on the number of tracers being screened, transfections can be scaled up using the same ratios. The next day, for each tracer, four 20× screening solutions in tracer dilution buffer (Promega) were prepared: two duplicates at final concentration of 20 μM and two duplicates at a final concentration of 2 μM. A competing unmodified compound was added to one of each duplicate at a final concentration of 400 μM. The four resulting solutions were diluted 4-fold in Opti-MEM without serum or phenol red to generate 5× solutions (5 µM and 0.5 µM tracer +/− 100 μM competing compound). To screen the library, a BioTek MultiFlo FX liquid dispenser was used to dispense 22.5 µL of tracer solution to the top 4 rows and 22.5 µL tracer + competing compound solution to the 4 bottom rows. Plates were briefly mixed on an orbital shaker and incubated for 1.5 h at room temperature. […]

[3] = molecular target: T3, GALR1 (Homo sapiens, UniProt P47211); assay: NanoBRET screen HiBiT-GALR1 in HEK293; conditions: GALR1
T3 construct: purchased Promega (in-house HiBiT-GPCR construct library, NanoBRET)
T3 sequence (P47211 1-349): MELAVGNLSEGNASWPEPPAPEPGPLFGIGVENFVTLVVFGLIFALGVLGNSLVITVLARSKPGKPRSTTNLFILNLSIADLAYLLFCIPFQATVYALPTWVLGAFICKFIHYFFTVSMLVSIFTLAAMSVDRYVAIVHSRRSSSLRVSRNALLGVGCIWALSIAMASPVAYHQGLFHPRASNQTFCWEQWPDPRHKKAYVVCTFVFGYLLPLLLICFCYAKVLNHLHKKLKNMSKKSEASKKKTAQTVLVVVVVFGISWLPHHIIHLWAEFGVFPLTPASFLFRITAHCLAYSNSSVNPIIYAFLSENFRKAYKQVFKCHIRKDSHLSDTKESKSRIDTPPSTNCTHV
Experimental: as §1, §2

[4] = molecular target: T4, HTR5A (Homo sapiens, UniProt P47898); assay: NanoBRET screen HiBiT-HTR5A in HEK293; conditions: HTR5A
T4 construct: purchased Promega (in-house HiBiT-GPCR construct library, NanoBRET)
T4 sequence (P47898 whole entry): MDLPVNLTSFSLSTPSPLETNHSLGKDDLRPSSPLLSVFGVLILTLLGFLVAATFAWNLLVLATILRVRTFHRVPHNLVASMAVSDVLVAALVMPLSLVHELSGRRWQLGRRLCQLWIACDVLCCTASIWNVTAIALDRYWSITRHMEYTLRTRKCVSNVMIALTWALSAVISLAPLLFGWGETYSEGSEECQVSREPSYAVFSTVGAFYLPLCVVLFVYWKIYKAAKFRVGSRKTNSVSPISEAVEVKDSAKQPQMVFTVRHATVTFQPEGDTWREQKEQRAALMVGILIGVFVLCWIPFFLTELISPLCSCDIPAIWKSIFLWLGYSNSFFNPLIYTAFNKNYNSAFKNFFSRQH
Experimental: as §1, §2

[5] = molecular target: T5, OXTR (Homo sapiens, UniProt P30559); assay: NanoBRET screen HiBiT-OXTR in HEK293; conditions: OXTR
T5 construct: purchased Promega (in-house HiBiT-GPCR construct library, NanoBRET)
T5 sequence (P30559 1-389): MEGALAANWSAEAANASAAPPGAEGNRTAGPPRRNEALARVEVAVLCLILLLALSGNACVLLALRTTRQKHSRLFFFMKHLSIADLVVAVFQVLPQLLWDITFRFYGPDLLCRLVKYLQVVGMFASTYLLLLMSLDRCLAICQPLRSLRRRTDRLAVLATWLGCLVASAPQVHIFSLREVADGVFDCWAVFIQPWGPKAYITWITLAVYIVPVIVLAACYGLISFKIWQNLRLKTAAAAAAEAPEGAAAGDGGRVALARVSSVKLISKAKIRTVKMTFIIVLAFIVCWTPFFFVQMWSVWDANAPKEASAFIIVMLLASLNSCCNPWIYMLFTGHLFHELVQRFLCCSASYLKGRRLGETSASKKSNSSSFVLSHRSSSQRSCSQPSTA
Experimental: as §1, §2

[6] = molecular target: T6, FZD2 (Homo sapiens, UniProt Q14332); assay: NanoBRET screen HiBiT-FZD2 in HEK293; conditions: FZD2
T6 construct: purchased Promega (in-house HiBiT-GPCR construct library, NanoBRET)
T6 sequence (Q14332 24-565): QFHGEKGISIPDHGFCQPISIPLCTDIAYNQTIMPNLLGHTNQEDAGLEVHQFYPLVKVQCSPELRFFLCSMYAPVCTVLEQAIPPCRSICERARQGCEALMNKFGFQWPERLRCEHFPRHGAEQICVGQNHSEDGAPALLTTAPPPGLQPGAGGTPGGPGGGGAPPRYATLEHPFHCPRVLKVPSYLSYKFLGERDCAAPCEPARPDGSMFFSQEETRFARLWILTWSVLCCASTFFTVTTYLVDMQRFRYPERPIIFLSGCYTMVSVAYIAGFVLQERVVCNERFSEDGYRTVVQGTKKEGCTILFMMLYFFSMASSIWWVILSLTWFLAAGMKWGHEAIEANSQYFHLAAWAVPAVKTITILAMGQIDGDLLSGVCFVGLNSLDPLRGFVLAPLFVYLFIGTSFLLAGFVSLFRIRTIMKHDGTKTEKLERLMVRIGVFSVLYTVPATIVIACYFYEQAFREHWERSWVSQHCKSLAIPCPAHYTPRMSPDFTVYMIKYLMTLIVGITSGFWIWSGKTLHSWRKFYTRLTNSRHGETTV
Experimental: as §1, §2

[7] = molecular target: T7, P2RY6 (Homo sapiens, UniProt Q15077); assay: NanoBRET screen HiBiT-P2RY6 in HEK293; conditions: P2RY6
T7 construct: purchased Promega (in-house HiBiT-GPCR construct library, NanoBRET)
T7 sequence (Q15077 whole entry): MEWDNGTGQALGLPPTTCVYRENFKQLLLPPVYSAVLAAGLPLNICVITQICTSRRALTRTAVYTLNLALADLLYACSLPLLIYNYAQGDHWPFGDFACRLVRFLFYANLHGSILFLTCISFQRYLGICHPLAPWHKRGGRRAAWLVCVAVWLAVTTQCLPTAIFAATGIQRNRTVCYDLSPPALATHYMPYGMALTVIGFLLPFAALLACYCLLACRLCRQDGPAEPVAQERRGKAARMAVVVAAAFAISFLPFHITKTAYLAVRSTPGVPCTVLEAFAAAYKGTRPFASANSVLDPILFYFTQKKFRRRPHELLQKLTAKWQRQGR
Experimental: as §1, §2

Structure (SMILES)	NanoBRET Fold Response [1]	NanoBRET Fold Response ([2]; tracer 0.1μM)	NanoBRET Fold Response ([3]; tracer 0.1μM)	NanoBRET Fold Response ([4]; tracer 0.1μM)	NanoBRET Fold Response ([4]; tracer 1μM)	NanoBRET Fold Response ([5]; tracer 0.1μM)	NanoBRET Fold Response ([6]; tracer 0.1μM)	NanoBRET Fold Response ([6]; tracer 1μM)	NanoBRET Fold Response ([7]; tracer 0.1μM)	NanoBRET Fold Response ([7]; tracer 1μM)	NanoBRET Fold Response ([2]; tracer 1μM)	NanoBRET Fold Response ([3]; tracer 1μM)	NanoBRET Fold Response ([5]; tracer 1μM)	NanoBRET Fold Response ([1]; HTR2A, tracer 0.1μM)	NanoBRET Fold Response ([1]; HTR2A, tracer 1μM)
COc1ccccc1N1CCN(CCCCN2C(=O)c3ccc(CNC(=O)CCOCCOCCOCCOCCNC(=O)CCc4ccc5n4[B-](F)(F)[N+]4=C(c6ccc[nH]6)C=CC4=C5)cc3C2=O)CC1 [NAN-190-2-NB590]	0.97	1.02	1.02	0.96	1.13	0.96	0.97	1.02	0.96	1.17	–	–	–	–	–
COc1ccccc1N1CCN(CCCCN2C(=O)c3ccc(CNC(=O)CCOCCNC(=O)c4ccc(CNC(=O)CCc5ccc6n5[B-](F)(F)[N+]5=C(c7ccc[nH]7)C=CC5=C6)cc4)cc3C2=O)CC1 [NAN-190-3-NB590]	1.14 and 1.13	1.21	1.09	0.99	1.06	1.10	0.88	1.44	1.10	0.91	0.96	0.99	1.05	–	–
CC(C)N(CC[C@H](c1ccccc1)c1cc(CCNC(=O)CCOCCOCCOCCOCCNC(=O)CCc2ccc3n2[B-](F)(F)[N+]2=C(c4ccc[nH]4)C=CC2=C3)ccc1O)C(C)C [Tolterodine-2-NB590]	–	1.00	1.04	1.07	1.05	0.97	0.91	0.95	1.06	0.98	1.31	0.99	0.94	1.05	1.11
CC(C)N(CC[C@H](c1ccccc1)c1cc(CCNC(=O)c2ccc(CNC(=O)CCc3ccc4n3[B-](F)(F)[N+]3=C(c5ccc[nH]5)C=CC3=C4)cc2)ccc1O)C(C)C [Tolterodine-BZ-NB590]	–	1.02	0.95	0.98	1.03	1.02	0.95	1.01	1.03	1.08	1.03	1.07	1.01	0.93	1.04
CCCn1c(=O)c2[nH]c(-c3ccc(OCC(=O)NCCNC(=O)CCOCCNC(=O)c4ccc(CNC(=O)CCc5ccc6n5[B-](F)(F)[N+]5=C(c7ccc[nH]7)C=CC5=C6)cc4)cc3)nc2n(CCC)c1=O [XAC-3-NB590]	–	0.99	1.02	1.12	0.97	1.04	1.09	1.04	1.06	1.12	1.04	1.04	0.98	0.99	1.10
